Assays:
[1] = tested on: Bacillus subtilis; experiment: Antibacterial activity against Bacillus subtilis ATCC 6633 assessed as inhibition of bacterial growth; assay type: functional, organism-based
[2] = tested on: SW-620; experiment: Cytotoxicity against human SW620 cells assessed as inhibition of cell growth; assay type: functional, cell-based
[3] = tested on: Candida albicans; experiment: Antifungal activity against Candida albicans ATCC 10231 assessed as inhibition of bacterial growth; assay type: functional, organism-based
[4] = tested on: Escherichia coli; experiment: Antibacterial activity against Escherichia coli ATCC 11775 assessed as inhibition of bacterial growth; assay type: functional, organism-based
[5] = tested on: Staphylococcus aureus; experiment: Antibacterial activity against Staphylococcus aureus ATCC 25923 assessed as inhibition of bacterial growth; assay type: functional, organism-based
[6] = tested on: NCI-H460; experiment: Cytotoxicity against human NCI-H460 cells assessed as inhibition of cell growth; assay type: functional, cell-based

Measured: IC50

C[C@H]1O[C@H](Oc2cccc3nc4c(N(C)c5ccc(C(=O)O)cc5)cccc4nc23)[C@@H](O)[C@@H](O)[C@@H]1O
> 30 µM: all assays above

C[C@@H]1O[C@@H](Oc2cccc3nc4c(C(=O)O)cc5c(c4nc23)[C@H]2Cc3nc4cccc(O)c4nc3[C@@H](O5)[C@H]2O)[C@H](O)[C@H](O)[C@H]1O
> 30 µM: all assays above

C[C@H]1O[C@H](Oc2cccc3nc4ccccc4nc23)[C@@H](O)[C@@H](O)[C@@H]1O
> 30 µM: all assays above

CN(c1ccc(C(=O)O)cc1)c1cccc2nc3c(O)cccc3nc12 [IZUMIPHENAZINE C]
> 30 µM: all assays above

C[C@@H]1O[C@@H](Oc2cc(C(=O)O)c3nc4cccc(O)c4nc3c2)[C@H](O)[C@H](O)[C@H]1O
> 30 µM: all assays above

O=C(O)c1cc2c(c3nc4c(O)cccc4nc13)[C@H]1Cc3nc4cccc(O)c4nc3[C@@H](O2)[C@H]1O
> 30 µM: all assays above

O=C(O)c1cc2c(c3nc4c(O)cccc4nc13)[C@@H]1Cc3nc4cccc(O)c4nc3[C@@](O)(C1)O2
> 30 µM: all assays above

C[C@@H]1O[C@@H](Oc2cccc3nc4c(C(=O)O)cc5c(c4nc23)[C@@H]2Cc3nc4cccc(O)c4nc3[C@@](O)(C2)O5)[C@H](O)[C@H](O)[C@H]1O
> 30 µM: all assays above

From ChEMBL document CHEMBL5385947, “Tepuazines A-E: Phenazine Glycosides from a Venezuelan Quartz-Rich (Tepui) Cave Soil-Derived Streptomyces virginiae CMB-CA091” (J Nat Prod, 2024)
